Where two headings read alike, the source gives them in different places.
Assays:
[1] = system: wild-type RSV; assay: microbe, parasite or virus in culture; format: cell-based
[2] = system: RSV K394R; format: cell-based, respiratory syncytial virus (RSV); conditions: for Fold resistance (RSV K394R): fold change in the EC50 relative to that of wild-type RSV
[3] = system: RSV K399N; format: cell-based, respiratory syncytial virus (RSV); conditions: for Fold resistance (RSV K399N): fold change in the EC50 relative to that of wild-type RSV
[4] = system: RSV T400A; format: cell-based, respiratory syncytial virus (RSV); conditions: for Fold resistance (RSV T400A): fold change in the EC50 relative to that of wild-type RSV
[5] = system: RSV A2; assay: microbe, parasite or virus in culture; format: cell-based; conditions: human respiratory syncytial virus; HEp-2 (RSV A2, MOI = 0.2), 72 h, FFA
[6] = system: RSV ON1; assay: microbe, parasite or virus in culture; format: cell-based; conditions: human respiratory syncytial virus; HEp-2 (RSV ON1, MOI = 0.2), 72 h, FFA
[7] = in vitro; format: cell-based; conditions: human; HEp-2 cells, 72 h, CCK8
Procedure: HEp-2 cells (1.3 × 10^4) were seeded in 96-well plates for 20 h. The indicated compounds in a 3-fold dilution series were added to the cells, and three wells were performed in parallel. After 72 h, the cells were incubated with DMEM containing 10% FBS and CCK8 reagent (Beyotime Biotechnology, cat#C0038) for 30 min at 37°C. The absorbance at 450 nm and 600 nm was read using the PerkinElmer EnSight reader.

[8] = system: RSV A2; assay: GFP-split cell-cell fusion assay mediated by RSV infection; format: cell-based, respiratory syncytial virus (RSV); conditions: RSV A2 MOI 1; 5, 1, 0.5 µM, 24 h, HEK293T GFP-split cells
Procedure: (§1) Cell–cell fusion assays were performed using a split-GFP system (GFP1-10 and GFP11) ([76]). Briefly, HEK293T cells stably expressing GFP1-10 were transfected with 1,000 ng of plasmids encoding either wild-type F or F mutants containing various amino acid substitutions. Alternatively, the cells were infected with RSV and treated with 0.1% DMSO or the indicated compounds at concentrations of 5, 1, and 0.5 µM. Then, the transfected or infected cells were co-cultured with HEK293T cells stably expressing GFP11 at a 1:1 ratio (8 × 10^4 cells/well) for 24 h in a 96-well plate. Images were acquired per well on an Operetta CLS High-Content Screening System (PerkinElmer).

[9] = system: RSV ON1-GFP; assay: Antiviral efficacy in primary human bronchial epithelial cells (GFP intensity); format: cell-based, respiratory syncytial virus (RSV); conditions: HBECs, MOI 2, 1 µM, 72 h
Procedure: The inhibitory effects of compounds on RSV ON1-GFP were evaluated in HBEC. […] At 72 h post-infection, the infected cells were visualized using an EVOS M5000 Cell Imaging System (Thermo Fisher Scientific).

[10] = system: RSV ON1-GFP; assay: Antiviral drug assay using lung airway organoids; conditions: 96 h, MOI 1
Text: In brief, HBECs were initially cultured in PneumaCult-Ex Plus Medium ([sequence] Technologies, cat#05040), then seeded at 2 × 10⁵ cells/well into anti-adherence rinsing solution ([sequence] Technologies, cat#07010)-treated AggreWell400 24-well plates ([sequence] Technologies, cat#34415). They were maintained in PneumaCult Apical-Out Airway Organoid Medium ([sequence] Technologies, cat#100-0620) for 6 days. Subsequently, the cells were transferred to similarly treated flat-bottom 24-well plates and cultured in the same medium for an additional 9 days.
The airway organoids were infected with RSV ON1-GFP at an MOI of 1 for 4 h. […] At 96 h post-infection, cell-free medium was harvested, and a TCID50 assay was performed to determine the viral titer. The organoids were fixed in parallel in 4% PFA, permeabilized with 0.5% Triton X-100 (1 h), blocked with 5% BSA (Macklin, cat#B824162; 2 h), and incubated overnight at 4°C with primary antibodies: Goat anti-Human p63/TP73L polyclonal antibody (R&D Systems, cat#AF1916), Rabbit anti-Human Mucin 5AC polyclonal antibody (Abways, cat#CY6826), and Mouse anti-acetylated tubulin monoclonal antibody (Sigma-Aldrich, cat#T7451). […] The GFP fluorescence intensity was quantified using ImageJ analysis software (RRID: SCR_003070; National Institutes of Health, NIH).

[11] = biological target: T1, RSV F protein (Human respiratory syncytial virus A, UniProt P03420); format: cell-based; parameters: expressed in transfected cells; host or cells: HEK293T; conditions: HEK293T cells expressing RSV F, western blot
Target sequence in this assay (P03420 137-574): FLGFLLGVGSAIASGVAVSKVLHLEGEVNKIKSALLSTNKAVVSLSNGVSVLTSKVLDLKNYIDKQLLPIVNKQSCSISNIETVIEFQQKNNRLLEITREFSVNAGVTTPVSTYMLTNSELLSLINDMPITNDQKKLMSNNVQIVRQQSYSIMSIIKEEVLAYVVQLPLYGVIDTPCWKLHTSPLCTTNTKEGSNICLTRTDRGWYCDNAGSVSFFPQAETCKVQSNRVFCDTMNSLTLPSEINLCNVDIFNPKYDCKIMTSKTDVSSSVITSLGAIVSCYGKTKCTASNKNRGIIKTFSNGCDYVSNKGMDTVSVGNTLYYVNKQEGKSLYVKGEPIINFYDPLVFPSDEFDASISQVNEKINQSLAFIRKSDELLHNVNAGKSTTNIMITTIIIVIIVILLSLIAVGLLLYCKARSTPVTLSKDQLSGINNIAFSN
Target sequence in this assay (P03420 26-109): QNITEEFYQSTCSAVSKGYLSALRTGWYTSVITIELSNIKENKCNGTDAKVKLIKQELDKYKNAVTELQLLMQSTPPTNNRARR

[12] = biological target: T1, RSV F protein; format: cell-based; parameters: HEp-2 cells were infected with RSV (MOI = 10); endogenous in cells; host or cells: HEp-2 cells infected with RSV (viral protein made in the infected cell); conditions: HEp-2, RSV MOI 10, 1 µM, 18 h
Target sequence in this assay (P03420 137-574): as the sequence (P03420 137-574) above
Target sequence in this assay (Q96SW2 whole entry, further chain): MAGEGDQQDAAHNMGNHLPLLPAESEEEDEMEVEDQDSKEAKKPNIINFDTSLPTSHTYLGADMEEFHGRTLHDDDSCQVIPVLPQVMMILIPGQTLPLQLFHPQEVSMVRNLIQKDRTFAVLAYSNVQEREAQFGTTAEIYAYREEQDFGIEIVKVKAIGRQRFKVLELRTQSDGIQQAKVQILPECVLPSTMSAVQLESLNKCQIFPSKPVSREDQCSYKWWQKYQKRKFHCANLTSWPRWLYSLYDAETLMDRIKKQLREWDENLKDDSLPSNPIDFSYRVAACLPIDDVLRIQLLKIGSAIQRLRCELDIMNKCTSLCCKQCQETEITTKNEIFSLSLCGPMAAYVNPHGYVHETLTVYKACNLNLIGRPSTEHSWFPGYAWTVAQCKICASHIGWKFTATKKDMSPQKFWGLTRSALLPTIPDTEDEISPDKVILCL
Target sequence in this assay (P03420 26-109): as the sequence (P03420 26-109) above

[13] = system: RSV A2 P18 (Control); assay: Antiviral activity against passaged virus in HEp-2 cells (FFA); format: cell-based, respiratory syncytial virus (RSV); conditions: human respiratory syncytial virus, HEp-2, MOI 0.2, FFA
[14] = system: Lonafarnib escape virus populations P18 (RSV A2); assay: as above; format: cell-based, respiratory syncytial virus (RSV); conditions: human respiratory syncytial virus, HEp-2, MOI 0.2, FFA
[15] = system: RSV ON1 P18 (Control); assay: as above; format: cell-based, respiratory syncytial virus (RSV); conditions: human respiratory syncytial virus, HEp-2, MOI 0.2, FFA
[16] = system: Lonafarnib escape virus populations P18 (RSV ON1); assay: as above; format: cell-based, respiratory syncytial virus (RSV); conditions: human respiratory syncytial virus, HEp-2, MOI 0.2, FFA
[17] = system: RSV V127G; format: cell-based, respiratory syncytial virus (RSV)
[18] = system: RSV L141F; format: cell-based, respiratory syncytial virus (RSV)
[19] = system: RSV T400I; format: cell-based, respiratory syncytial virus (RSV)
[20] = system: RSV F488L; format: cell-based, respiratory syncytial virus (RSV)
[21] = system: DS-Cav1 mutants (T335I, K394R, S398L, K399N, T400A, and D401E); format: binding; conditions: D401E compared with DS-Cav1
[22] = system: RSV F protein mutants; assay: GFP-split cell-cell fusion assay mediated by transfected F or F mutants; format: cell-based, respiratory syncytial virus (RSV); conditions: 5, 1, 0.5 µM, 24 h, HEK293T GFP-split cells
Procedure: as §1

[23] = system: RSV; conditions: oral administration; cited from earlier work
[24] = Table 2 cross-resistance experiment, HEp-2, read-out: EC50 RSV K394R
[25] = Table 2 cross-resistance experiment, HEp-2, read-out: EC50 RSV K399N
[26] = Table 2 cross-resistance experiment, HEp-2, read-out: EC50 RSV T400A
[27] = human respiratory syncytial virus, wild-type RSV, Table 2 cross-resistance experiment, HEp-2, read-out: EC50 RSV

SMILES: CS(=O)(=O)CCCn1c(Cn2c(=O)n(CC(F)(F)F)c3ccncc32)cc2cc(Cl)ccc21 [JNJ-53718678]
- EC50 ([1]; wild-type RSV, Table 2 cross-resistance experiment, HEp-2, read-out: EC50 RSV): 0.7 nM
- EC50 [2, 24]: 10100 nM
- Fold resistance (RSV K394R) [2]: 15,582.2
- EC50 [3, 25]: 248 nM
- Fold resistance (RSV K399N) [3]: 382.2
- EC50 [4, 26]: 11600 nM
- Fold resistance (RSV T400A) [4]: 17,920.3

SMILES: O=C1CCC(N2C(=O)c3cccc(NCCOCCOCCOCCC(=O)N4CCC(CC(=O)N5CCC([C@H]6c7ncc(Br)cc7CCc7cc(Cl)cc(Br)c76)CC5)CC4)c3C2=O)C(=O)N1 (stereo partly drawn) [compound 0179841, 4-((2-(2-(2-(3-(4-(2-(4-((R)−3,10-dibromo-8-chloro-6,11-dihydro-5H-benzo[5,6]cyclohepta[1,2-b]pyridin-11-yl)piperidin-1-yl)−2-oxoethyl)piperidin-1-yl)−3-oxopropoxy)ethoxy)ethoxy)ethyl)amino)−2-(2,6-dioxopiperidin-3-yl)isoindoline-1,3-dione]
- EC50 [5]: 450 ± 40 nM
- EC50 [6]: 460 ± 30 nM
- CC50 [7]: > 100000 nM
- inhibition of RSV-induced cell-cell fusion activity [8]: significantly inhibited
- RSV infection level (GFP intensity) [9]: significant decrease in the RSV infection level
- reduction of viral titers compared with the DMSO control ([10]; 5 µM, TCID50 of supernatant): more than 100 fold
- viral loads and protein expression in lung airway organoids ([10]; 5, 1, 0.5 µM): significantly reduced viral loads and protein expression in a dose-dependent manner
- effect on F protein levels [11]: time- and concentration-dependent
- degradation of the F protein during RSV infection [12]: induced significant degradation of the F protein

SMILES: Cc1cn2nc([C@@H]3CCCCN3C(=O)c3cc(Cl)ccc3NS(C)(=O)=O)cc2nc1N1CC[C@H](N)C1 [GS-5806]
- EC50 [1, 27]: 0.1 nM
- EC50 [2, 24]: 192 nM
- Fold resistance (RSV K394R) [2]: 1,673.9
- EC50 [3, 25]: 4.4 nM
- Fold resistance (RSV K399N) [3]: 38.3
- EC50 [4, 26]: 28.8 nM
- Fold resistance (RSV T400A) [4]: 250.1

SMILES: NCc1ccc2c(c1)nc(CN1C(=O)C3(CC3)c3ccc(F)cc31)n2CCCC(F)(F)F [RV521]
- EC50 [1, 27]: 0.1 nM
- EC50 [2, 24]: 179 nM
- Fold resistance (RSV K394R) [2]: 2,462.8
- EC50 [3, 25]: 0.4 nM
- Fold resistance (RSV K399N) [3]: 5.4
- EC50 [4, 26]: 12.6 nM
- Fold resistance (RSV T400A) [4]: 173.6

SMILES: NC(=O)N1CCC(CC(=O)N2CCC([C@H]3c4ncc(Br)cc4CCc4cc(Cl)cc(Br)c43)CC2)CC1 [Lonafarnib]
- EC50 ([13]; HEp-2, Lineage 1): 40 nM
- EC50 ([13]; HEp-2, Lineage 2): 50 nM
- EC50 ([13]; HEp-2, Lineage 3): 40 nM
- EC50 ([14]; HEp-2, Lineage 1): 800 nM
- EC50 ([14]; HEp-2, Lineage 2): 1080 nM
- EC50 ([14]; HEp-2, Lineage 3): 790 nM
- EC50 ([15]; HEp-2, Lineage 1): 90 nM
- EC50 ([15]; HEp-2, Lineage 2): 130 nM
- EC50 ([15]; HEp-2, Lineage 3): 130 nM
- EC50 ([16]; HEp-2, Lineage 1): 3360 nM
- EC50 ([16]; HEp-2, Lineage 2): 4100 nM
- EC50 ([16]; HEp-2, Lineage 3): 3500 nM
- EC50 ([1]; human respiratory syncytial virus, 72 h, Wild-type, HEp-2, MOI 0.2, 3 days, FFA, read-out: EC50): 46 ± 10 nM
- EC90 ([1]; human respiratory syncytial virus, HEp-2, Wild-type, EC90 = 9^1/HillSlope*EC50): 190 ± 120 nM
- EC50 [1, 27]: 45.6 nM
- EC90 ([17]; EC90 = 9^1/HillSlope*EC50): 177 ± 38 nM
- EC50 ([17]; HEp-2, MOI 0.2, 3 days, FFA): 44 ± 5 nM
- EC90 ([18]; EC90 = 9^1/HillSlope*EC50): 631 ± 125 nM
- EC50 ([18]; HEp-2, MOI 0.2, 3 days, FFA): 79 ± 19 nM
- EC90 ([2]; K394R, EC90 = 9^1/HillSlope*EC50): 15000 ± 7330 nM
- EC50 ([2]; K394R, HEp-2, MOI 0.2, 3 days, FFA, read-out: EC50): 5130 ± 1690 nM
- EC50 [2, 24]: 3840 nM
- EC90 ([3]; K399N, EC90 = 9^1/HillSlope*EC50): 1550 ± 277 nM
- EC50 ([3]; K399N, HEp-2, MOI 0.2, 3 days, FFA, read-out: EC50): 450 ± 32 nM
- EC50 [3, 25]: 406 nM
- EC90 ([4]; T400A, EC90 = 9^1/HillSlope*EC50): 4640 ± 440 nM
- EC50 ([4]; T400A, HEp-2, MOI 0.2, 3 days, FFA, read-out: EC50): 1520 ± 127 nM
- EC50 [4, 26]: 1120 nM
- EC90 ([19]; EC90 = 9^1/HillSlope*EC50): 4610 ± 663 nM
- EC50 ([19]; HEp-2, MOI 0.2, 3 days, FFA): 1510 ± 184 nM
- EC90 ([20]; EC90 = 9^1/HillSlope*EC50): 1900 ± 160 nM
- EC50 ([20]; HEp-2, MOI 0.2, 3 days, FFA): 700 ± 69 nM
- EC50 [5]: 40 ± 2 nM
- EC50 [6]: 60 ± 20 nM
- CC50 [7]: 17900 ± 1130 nM
- binding affinity for lonafarnib (SPR) [21]: significantly decreased the binding affinity
- inhibition of mutant-induced cell-cell fusion activity ([22]; T335I, S398L, K394R, K399I/N, T400A/I, and D401E mutants): did not or only slightly inhibit
- inhibition of mutant-induced cell-cell fusion activity ([22]; V76A, K80N, L119I, and D392G/N mutants): significantly inhibited
- RSV load in murine infection model [23]: dose-dependent reduction in the RSV load
- effect on F protein levels [11]: did not affect F protein levels

SMILES: Cc1ccc2nc(N3CCS(=O)(=O)c4ccccc4C3)nc(NCC3(N)COC3)c2c1 [AK0529]
- EC50 [1, 27]: 1.3 nM
- EC50 [2, 24]: 6550 nM
- Fold resistance (RSV K394R) [2]: 4,983.3
- EC50 [3, 25]: 2250 nM
- Fold resistance (RSV K399N) [3]: 1,713.3
- EC50 [4, 26]: 9850 nM
- Fold resistance (RSV T400A) [4]: 7,491.3
